In brackets after ≈: the same amount, converted by molar mass.
Assay: in vitro
Conditions: human

Structure (SMILES) | CC50 [µg/mL] | CC50 (Picorana CC50) [µg/mL]
CC(C)c1ccc2c(c1)OC1(O)c3ccccc3C(=O)C21NC(=O)[C@@H](Cc1ccccc1)NC(=O)OC(C)(C)C (stereo partly drawn) [Example 185, tert-Butyl(2R)-1-(4b-hydroxy-7-isopropyl-10-oxo-9b,10-dihydro-4bH-benzo[d]indeno[1,2-b]furan-9b-ylamino)-1-oxo-3-phenylpropan-2-ylcarbamate] | > 10 | 7.18 (≈ 13.2 µM)
CC(C)c1ccc2c(c1)OC1(O)c3ccccc3C(=O)C21NC(=O)[C@@H](C)NC(=O)OC(C)(C)C (stereo partly drawn) [Example 184, tert-Butyl(2R)-1-(4b-hydroxy-7-isopropyl-10-oxo-9b,10-dihydro-4bH-benzo[d]indeno[1,2-b]furan-9b-ylamino)-1-oxopropan-2-ylcarbamate] | > 10 | 36.4 (≈ 78 µM)
CC(=O)NC12C(=O)c3c(NC=O)cccc3C1(O)Oc1cc(C(C)C)ccc12 (stereo not shown) [Example 167, N-(1-Formamido-4b-hydroxy-7-isopropyl-10-oxo-9b,10-dihydro-4bH-benzo[d]-indeno[1,2-b]furan-9b-yl)acetamide] | > 10 | –
CCCCc1cn(C23C(=O)c4c(N)cccc4C2(O)Oc2cc(C(C)C)ccc23)nn1 (stereo not shown) [Example 196, 1-amino-9b-(4-butyl-1H-1,2,3-triazol-1-yl)-4b-hydroxy-7-isopropyl-4bH-indeno[1,2-b]benzofuran-10(9bH)-one] | 16.2 (≈ 38.7 µM) | 48.5 (≈ 116 µM)
CNC(=O)N[C@@]12C(=O)c3ccccc3[C@]1(O)Oc1cc(C(C)C)ccc12 [Example 101, 1-((4bS,9bS)-4b-Hydroxy-7-isopropyl-10-oxo-9b,10-dihydro-4bH-indeno[1,2-b]benzofuran-9b-yl)-3-methylurea] | – | > 50
CC(=O)N1c2cc(C)c(C)cc2C2(O)C(=O)c3ccccc3C12O (stereo not shown) [Example 104, 5-Acetyl-4b,9b-dihydroxy-7,8-dimethyl-4b,5-dihydroindeno[1,2-b]indol-10(9bH)-one] | – | > 50
COC(=O)OC12Oc3cc(C(C)C)ccc3C1(NC(C)=O)C(=O)c1ccccc12 (stereo not shown) [Example 111, 9b-Acetamido-7-isopropyl-10-oxo-9b,10-dihydro-4bH-indeno[1,2-b]benzofuran-4b-yl methyl carbonate] | – | 43.6 (≈ 110 µM)
CCCCCCCC(=O)NC12C(=O)c3ccccc3C1(O)Oc1cc(C(C)C)ccc12 (stereo not shown) [Example 90] | – | 34 (≈ 80.5 µM)
Cc1onc(-c2c(Cl)cccc2Cl)c1C(=O)NC12C(=O)c3ccccc3C1(O)Oc1cc(C(C)C)ccc12 (stereo not shown) [Example 236, 3-(2,6-dichlorophenyl)-N-(4b-hydroxy-7-isopropyl-10-oxo-9b,10-dihydro-4bH-benzo[d]indeno[1,2-b]furan-9b-yl)-5-methylisooxazole-4-carboxamide] | > 10 | 21.4 (≈ 38.9 µM)
CO/N=C1/c2ccccc2C2(OC)Oc3cc(C(C)C)ccc3C12O (stereo not shown) [Example 130, 9b-Hydroxy-7-isopropyl-4b-methoxy-4bH-indeno[1,2-b]benzofuran-10(9bH)-one O-methyl oxime] | – | > 50
CONC(=O)N[C@@]12C(=O)c3ccccc3[C@]1(O)Oc1cc(C(C)C)ccc12 [Example 103, 1-((4bS,9bS)-4b-Hydroxy-7-isopropyl-10-oxo-9b,10-dihydro-4bH-indeno[1,2-b]benzofuran-9b-yl)-3-methoxyurea] | – | > 50
CC(C)c1ccc2c(c1)OC1(O)c3ccccc3C(=O)C21NC(=O)c1cccnc1 (stereo not shown) [Example 230, N-(4b-Hydroxy-7-isopropyl-10-oxo-9b,10-dihydro-4bH-indeno[1,2-b]benzofuran-9b-yl)nicotinamide] | > 10 | 42.8 (≈ 107 µM)
CC(C)c1ccc2c(c1)OC1(O)c3cccc(N)c3C(=O)C21NS(=O)(=O)C(F)(F)F (stereo not shown) [Example 176, N-(1-Amino-4b-hydroxy-7-isopropyl-10-oxo-9b,10-dihydro-4bH-benzo[d]indeno[1,2-b]furan-9b-yl)-1,1,1-trifluoromethanesulfonamide] | > 10 | –
CC(C)c1ccc2c(c1)OC1(O)c3ccccc3C(C)C21O (stereo not shown) [Example 136, 7-Isopropyl-10-methyl-9b,10-dihydro-4bH-indeno[1,2-b]benzofuran-4b,9b-diol] | – | 7.8 (≈ 26.3 µM)
CC(C)c1ccc2c(c1)OC1(O)c3ccccc3C(=O)C21NC(=O)c1cc2ccccc2[nH]1 (stereo not shown) [Example 208, N-(4b-hydroxy-7-isopropyl-10-oxo-9b,10-dihydro-4bH-indeno[1,2-b]benzofuran-9b-yl)-1H-indole-2-carboxamide] | > 10 | –
Cc1cc(C)n2ncc(C(=O)NC34C(=O)c5c(N)cccc5C3(O)Oc3cc(C(C)C)ccc34)c2n1 (stereo not shown) [Example 282, N-(1-Amino-4b-hydroxy-7-isopropyl-10-oxo-9b,10-dihydro-4bH-indeno[1,2-b]benzofuran-9b-yl)-5,7-dimethylpyrazolo[1,5-a]pyrimidine-3-carboxamide] | > 10 | 6.78 (≈ 14 µM)
CC(C)c1ccc2c(c1)OC1(O)c3cccc(N)c3C(=O)C21NC(=O)NC(C)(C)C (stereo not shown) [Example 165] | > 10 | –
CC(C)C(=O)N1c2cc(C(C)C)ccc2C2(O)C(=O)c3ccccc3C12O (stereo not shown) [Example 145, 4b,9b-Dihydroxy-5-isobutyryl-7-isopropyl-5,9b-dihydro-4bH-indeno[1,2-b]indol-10-one] | – | 18.3 (≈ 50.2 µM)
CCCCCCC(=O)NC12C(=O)c3c(N)cccc3C1(OC(=O)CCCCCC)Oc1cc(C(C)C)ccc12 (stereo not shown) [Example 99, 1-Amino-9b-heptanamido-7-isopropyl-10-oxo-9b,10-dihydro-4bH-benzo[d]indeno[1,2-b]furan-4b-yl heptanoate] | 7.7 (≈ 14.4 µM) | > 50
CCCC(=O)NC12C(=O)c3ccccc3C1(OC(=O)CCC)Oc1cc(C(C)C)ccc12 (stereo not shown) [Example 89, Butyric acid 9b-butyrylamino-7-isopropyl-10-oxo-9b,10-dihydro-5-oxa-indeno[2,1-a]inden-4b-yl ester] | – | > 50
CC(C)c1ccc2c(c1)OC1(O)c3cccc(N)c3C(=O)C21NC(=O)c1ccc(-c2ccccc2)cc1 (stereo not shown) [Example 172] | > 10 | –
CCCCCCNC12C(=O)c3ccccc3C1(O)Oc1cc(C(C)C)ccc12 (stereo not shown) [Example 67, 9b-Hexylamino-4b-hydroxy-7-isopropyl-4b,9b-dihydro-5-oxa-indeno[2,1-a]inden-10-one] | – | 9.42 (≈ 24.8 µM)
CCCCCCC(=O)NC12C(=O)c3ccccc3C1(OC(=O)CCCCCC)Oc1cc(C(C)C)ccc12 (stereo not shown) [Example 92, Heptanoic acid 9b-heptanoylamino-7-isopropyl-10-oxo-9b,10-dihydro-5-oxa-indeno[2,1-a]inden-4b-yl ester] | – | > 50
C=C1c2ccccc2C2(OC)Oc3cc(C(C)C)ccc3C12O (stereo not shown) [Example 129, 7-Isopropyl-4b-methoxy-10-methylene-9b,10-dihydro-4bH-indeno[1,2-b]benzofuran-9b-ol] | – | 6.79 (≈ 22 µM)
CCOC(=O)OC12Oc3cc(C(C)C)ccc3C1(NC(C)=O)C(=O)c1ccccc12 (stereo not shown) [Example 116, 9b-Acetamido-7-isopropyl-10-oxo-9b,10-dihydro-4bH-benzo[d]indeno[1,2-b]furan-4b-yl ethyl carbonate] | – | 41.7 (≈ 102 µM)
CC(C)c1ccc2c(c1)OC1(O)c3cccc(N)c3C(=O)C21NC(=O)c1cccc2cccnc12 (stereo not shown) [Example 202, N-(1-Amino-4b-hydroxy-7-isopropyl-10-oxo-9b,10-dihydro-4bH-indeno[1,2-b]benzofuran-9b-yl)quinoline-8-carboxamide] | 3.24 (≈ 6.96 µM) | 9.6 (≈ 20.6 µM)

Reference: US9890133B2 (priority 2011, dated 2018)
